# Experimental data published in the SangsterLogP compilation.
row,logP,Structure (SMILES)
1,2.23,CC(C)c1nnc(-c2ccc(N)cc2)o1
2,2.48,CCCCC(=O)c1ccc(N)cc1
3,2.13,CCc1nc(-c2ccc(N)cc2)no1
4,3.48,Nc1ccc(-c2nc(-c3ccccc3)no2)cc1
5,2.53,CCCc1nnc(-c2ccc(N)cc2)s1
6,1.92,CCc1nnc(-c2ccc(N)cc2)o1
7,2.27,CCCc1nnc(-c2ccc(N)cc2)o1
8,1.63,Cc1nnc(-c2ccc(N)cc2)o1
9,2.22,CCc1noc(-c2ccc(N)cc2)n1

# Second part, the molecule before the results:
row,Structure (SMILES),logP
1,Nc1ccc(-c2nnc(Cc3ccccc3)o2)cc1,2.82
2,CCc1nsc(-c2ccc(N)cc2)n1,2.39
3,Nc1ccc(-c2nc(Cc3ccccc3)no2)cc1,3.24
4,Cc1noc(-c2ccc(N)cc2)n1,1.89
5,Cc1nc(-c2ccc(N)cc2)no1,1.71
6,CC(C)c1noc(-c2ccc(N)cc2)n1,2.57
7,CCCCc1nnc(-c2ccc(N)cc2)o1,2.66
8,CCCc1noc(-c2ccc(N)cc2)n1,2.61
9,CCC(=O)c1ccc(N)cc1,1.65
10,Nc1ccc(-c2nnc(-c3ccccc3)o2)cc1,2.91
11,CCCc1nc(-c2ccc(N)cc2)no1,2.54
12,CC(C)(C)c1nnc(-c2ccc(N)cc2)o1,2.53
